{
  "source": "patent US20160058735A1",
  "about": "“METHODS OF TREATING HYPERHIDROSIS” (Dermira, Inc., priority 2014, published 2016)",
  "key": {"[1]": {"test_system": "patients with severe primary axillary hyperhidrosis", "assay": "Phase 2a clinical trial: disease severity by Hyperhidrosis Disease Severity Scale (HDSS)", "assay_type": "in vivo, human", "conditions": "Formulation A, 2% and 4% pooled; first on-treatment assessment, about one week", "protocol": "(§1) The completed Phase 2a clinical trial was a randomized, double-blind study in 38 patients with severe primary axillary hyperhidrosis.\n(§2) Patients were instructed to apply the study product once daily for four weeks using wipes saturated with either the topical formulation of the reference agent or vehicle only. Efficacy was evaluated based on axillary sweat production and disease severity. Assessments were conducted approximately weekly during the four-week treatment period and two weeks after the end of this treatment period. Disease severity was measured using a widely-used patient-reported outcome tool called the Hyperhidrosis Disease Severity Scale, or HDSS, wherein patients rate the severity of their disease on a four-point scale. Patients who rate the severity of their disease as a three or a four on the HDSS are considered to have severe disease, while those who rate it as one or two are considered to have mild or moderate disease. All 38 patients enrolled in the clinical trial rated the severity of their disease as a three or a four on the HDSS prior to the start of treatment. Trial inclusion criteria required that prior to the start of treatment, all patients produce at least 50 mg of sweat in each axilla over a five-minute period."}, "[2]": {"test_system": "patients with severe primary axillary hyperhidrosis", "assay": "Phase 2a clinical trial: axillary sweat production", "assay_type": "in vivo, human", "protocol": "as §1\nas §2, with “Efficacy” for “Patients were instructed to apply the study product once daily for four weeks using wipes saturated with either the topical formulation of the reference agent or vehicle only. Efficacy”, “All 38 patients enrolled in the clinical trial rated the severity of their disease as a three or a four on the HDSS prior to the start of treatment.” left out"}, "[3]": {"test_system": "patients with severe primary axillary hyperhidrosis", "assay": "Study DRM04-HH01 (Phase 2b): adverse events", "protocol": "Assessments were conducted approximately weekly during the four-week treatment period and the two-week period after the end of this treatment period. […] Trial inclusion criteria required that prior to the start of treatment, all patients produce at least 50 mg of sweat in each axilla over a five-minute period."}},
  "data": [
    {"molecule": "C[N+]1(C)CCC(OC(=O)C(O)(c2ccccc2)C2CCCC2)C1.[Br-]", "note": "(stereo not drawn) [reference agent, threo-glycopyrronium bromide]", "values": [
      {"measurement": "patients reporting improvement in disease severity (HDSS) from severe to mild or moderate", "setting": "[1]", "value": "Nine of 12"},
      {"measurement": "sweat production on average lower than at the start of therapy", "setting": "[2]; Formulation A, nine patients, end of four-week treatment period", "value": 61, "unit": "%"},
      {"measurement": "reversibility of effect on sweating and disease severity", "setting": "[2]; two weeks following cessation of therapy", "value": "appeared to be reversible"},
      {"measurement": "patients who withdrew from the study due to adverse events", "setting": "[3]; 1% cohort", "value": 2.6, "unit": "%"},
      {"measurement": "patients who withdrew from the study due to adverse events", "setting": "[3]; 2% cohort", "value": 5.0, "unit": "%"},
      {"measurement": "patients who withdrew from the study due to adverse events", "setting": "[3]; 3% cohort", "value": 2.5, "unit": "%"},
      {"measurement": "patients who withdrew from the study due to adverse events", "setting": "[3]; 4% cohort", "value": 20.0, "unit": "%"},
      {"measurement": "most common TEAEs", "setting": "[3]; in vivo", "value": "dry mouth, upper respiratory tract infection, dry skin and blurred vision"},
      {"measurement": "treatment-related serious adverse events", "setting": "[3]; in vivo", "value": "No treatment-related serious adverse events were reported"}
    ]}
  ]
}
